Assay results: ChEMBL document CHEMBL3046548, “Genetic and biochemical analysis of a laboratory-selected spirodiclofen-resistant strain of Tetranychus urticae Koch (Acari: Tetranychidae)” (2009)
≈ marks a conversion by molar mass, not a printed value. Counter-ions that a name gives are not always drawn.

Tests used:
Tetranychus urticae [1] = experiment: Insecticidal activity against spirodiclofen-resistant Tetranychus urticae SR-VP (two-spotted spider mite) adults in kidney bean leaf disks assessed as mortality measured after 2 days; assay type: functional; settings: foliar, 48 h
Tetranychus urticae [2] = experiment: Resistance ratio of LC50 for spirodiclofen-resistant Tetranychus urticae SR-VP (two-spotted spider mite) adults to LC50 for spirodiclofen-susceptible Tetranychus urticae LS-VL (two-spotted spider mite) adults; assay type: functional
Tetranychus urticae [3] = experiment: Insecticidal activity against spirodiclofen-susceptible Tetranychus urticae LS-VL (two-spotted spider mite) adults in kidney bean leaf disks assessed as mortality after 2 day; assay type: functional; settings: foliar, 48 h
Tetranychus urticae [4] = experiment: Insecticidal activity against spirodiclofen-resistant Tetranychus urticae SR-VP (two-spotted spider mite) eggs in kidney bean leaf disks assessed as mortality measured after 1 day; assay type: functional
Tetranychus urticae [5] = experiment: (§1) Resistance ratio of LC50 for Tetranychus urticae SR-VP (two-spotted spider mite) larvae reared under continuous pressure of 5000 mg/L spirodiclofen for 5 months in presence of 200 mg/L GSH depleter, DEM to LC50 for Tetranychus urticae LS-VL (two-spotted spider mite) larvae in presence of 200 mg/L GSH depleter, DEM; assay type: functional
Tetranychus urticae [6] = experiment: Synergism factor, ratio of LC50 for Tetranychus urticae SR-VP (two-spotted spider mite) larvae to LC50 for Tetranychus urticae SR-VP larvae in presence of 200 mg/L GSH depleter, DEM; assay type: functional
Tetranychus urticae [7] = experiment: Insecticidal activity against Tetranychus urticae SR-VP (two-spotted spider mite) larvae reared under continuous pressure of 5000 mg/L spirodiclofen for 5 months assessed as mortality treated 3-4 hr after 200 mg/L GSH depleter, DEM application measured after 1 day; assay type: functional
Tetranychus urticae [8] = experiment: Synergism factor, ratio of LC50 for Tetranychus urticae LS-VL (two-spotted spider mite) larvae to LC50 for Tetranychus urticae LS-VL larvae in presence of 200 mg/L GSH depleter, DEM; assay type: functional
Tetranychus urticae [9] = experiment: Insecticidal activity against Tetranychus urticae LS-VL (two-spotted spider mite) larvae […] assessed as mortality treated 3-4 hr after 200 mg/L GSH depleter, DEM application measured after 1 day; assay type: functional
Tetranychus urticae [10] = experiment: Insecticidal activity against spirodiclofen-resistant Tetranychus urticae SR-VP (two-spotted spider mite) larvae in kidney bean leaf disks assessed as mortality measured after 1 day; assay type: functional; settings: foliar, 24 h
Tetranychus urticae [11] = experiment: Resistance ratio of LC50 for spirodiclofen-resistant Tetranychus urticae SR-VP (two-spotted spider mite) larvae to LC50 for spirodiclofen-susceptible Tetranychus urticae LS-VL (two-spotted spider mite) larvae; assay type: functional
Tetranychus urticae [12] = experiment: Insecticidal activity against spirodiclofen-susceptible Tetranychus urticae LS-VL (two-spotted spider mite) larvae in kidney bean leaf disks assessed as mortality after 1 day; assay type: functional; settings: foliar, 24 h
Tetranychus urticae [13] = experiment: Insecticidal activity against Tetranychus urticae LS-VL (two-spotted spider mite) larvae reared under continuous pressure of 5000 mg/L spirodiclofen for 5 months assessed as mortality treated 3-4 hr after 200 mg/L cytochrome P450 monooxygenase inhibitor, PBO application measured after 1 day
Tetranychus urticae [14] = experiment: Insecticidal activity against Tetranychus urticae SR-VP (two-spotted spider mite) larvae reared under continuous pressure of 5000 mg/L spirodiclofen for 5 months assessed as mortality treated 3-4 hr after 200 mg/L cytochrome P450 monooxygenase inhibitor, PBO application measured after 1 day
Tetranychus urticae [15] = experiment: as §1, with “10” for “200”, “esterase inhibitor, DEF” for “GSH depleter, DEM”; assay type: functional
Tetranychus urticae [16] = experiment: Synergism factor, ratio of LC50 for Tetranychus urticae SR-VP (two-spotted spider mite) larvae to LC50 for Tetranychus urticae SR-VP larva in presence of 10 mg/L esterase inhibitor, DEF; assay type: functional
Tetranychus urticae [17] = experiment: Insecticidal activity against Tetranychus urticae LS-VL (two-spotted spider mite) larvae […] assessed as mortality treated 3-4 hr after 10 mg/L esterase inhibitor, DEF application measured after 1 day; assay type: functional
Tetranychus urticae [18] = experiment: Insecticidal activity against Tetranychus urticae SR-VP (two-spotted spider mite) larvae reared under continuous pressure of 5000 mg/L spirodiclofen for 5 months assessed as mortality treated 3-4 hr after 10 mg/L esterase inhibitor, DEF application measured after 1 day; assay type: functional
Tetranychus urticae [19] = experiment: Synergism factor, ratio of LC50 for Tetranychus urticae LS-VL (two-spotted spider mite) larvae to LC50 for Tetranychus urticae LS-VL larva in presence of 10 mg/L esterase inhibitor, DEF; assay type: functional
Tetranychus urticae [20] = experiment: Resistance ratio of LC50 for spirodiclofen-resistant Tetranychus urticae SR-VP (two-spotted spider mite) larvae reared under continuous pressure of 5000 mg/L spirodiclofen for 5 months to LC50 for spirodiclofen-susceptible Tetranychus urticae LS-VL (two-spotted spider mite) larvae; assay type: functional
Tetranychus urticae [21] = experiment: Insecticidal activity against spirodiclofen-resistant Tetranychus urticae SR-VP (two-spotted spider mite) larvae maintained on bean plants sprayed with 5000 mg/L spirodiclofen assessed as mortality measured at 6 months after mite transfer onto unsprayed bean plants; assay type: functional
Tetranychus urticae [22] = experiment: Insecticidal activity against spirodiclofen-resistant Tetranychus urticae SR-VP (two-spotted spider mite) larvae maintained on bean plants sprayed with 5000 mg/L spirodiclofen assessed as mortality; assay type: functional
Tetranychus urticae [23] = experiment: Insecticidal activity against haploid F2 progeny generated from reciprocal cross between male Tetranychus urticae LS-VL (two-spotted spider mite) with female Tetranychus urticae SR-VP in kidney bean leaf disk assessed as mortality; assay type: functional; settings: foliar
Tetranychus urticae [24] = experiment: Insecticidal activity against haploid F2 progeny generated from reciprocal cross between female Tetranychus urticae LS-VL (two-spotted spider mite) with male Tetranychus urticae SR-VP in kidney bean leaf disk assessed as mortality; assay type: functional; settings: foliar
Tetranychus urticae [25] = experiment: Insecticidal activity against diploid F1 progeny generated from reciprocal cross between male Tetranychus urticae LS-VL (two-spotted spider mite) with female Tetranychus urticae SR-VP in kidney bean leaf disk assessed as mortality; assay type: functional
Tetranychus urticae [26] = experiment: Insecticidal activity against diploid F1 progeny generated from reciprocal cross between female Tetranychus urticae LS-VL (two-spotted spider mite) with male Tetranychus urticae SR-VP in kidney bean leaf disk assessed as mortality; assay type: functional
Tetranychus urticae [27] = experiment: Resistance ratio of LC50 for spirodiclofen-resistant Tetranychus urticae SR-VP (two-spotted spider mite) eggs to LC50 for spirodiclofen-susceptible Tetranychus urticae LS-VL (two-spotted spider mite) eggs; assay type: functional
Tetranychus urticae [28] = experiment: Insecticidal activity against spirodiclofen-resistant Tetranychus urticae SR-VP (two-spotted spider mite) larvae reared under continuous pressure of 5000 mg/L spirodiclofen for 5 months in kidney bean leaf disks assessed as mortality measured after 1 day; assay type: functional; settings: foliar, 24 h
Tetranychus urticae [29] = experiment: Insecticidal activity against spirodiclofen-susceptible Tetranychus urticae LS-VL (two-spotted spider mite) eggs in kidney bean leaf disks assessed as mortality after 1 day; assay type: functional; settings: foliar, 24 h

CC[C@H](C)[C@H]1O[C@]2(C=C[C@@H]1C)C[C@@H]1C[C@@H](C/C=C(\C)[C@@H](O[C@H]3C[C@H](OC)[C@@H](O[C@H]4C[C@H](OC)[C@@H](O)[C@H](C)O4)[C@H](C)O3)[C@@H](C)/C=C/C=C3\CO[C@@H]4[C@H](O)C(C)=C[C@@H](C(=O)O1)[C@]34O)O2.CO[C@H]1C[C@H](O[C@H]2[C@H](C)O[C@@H](O[C@@H]3/C(C)=C/C[C@@H]4C[C@@H](C[C@]5(C=C[C@H](C)[C@@H](C(C)C)O5)O4)OC(=O)[C@@H]4C=C(C)[C@@H](O)[C@H]5OC/C(=C\C=C\[C@@H]3C)[C@]54O)C[C@@H]2OC)O[C@@H](C)[C@@H]1O [ABAMECTIN]
LC50 (Tetranychus urticae [1]): 0.52 µg/mL
RatioLC50 (Tetranychus urticae [2]): 1.3
LC50 (Tetranychus urticae [3]): 0.4 µg/mL

CCCCCCCCCCCCC1=C(OC(C)=O)C(=O)c2ccccc2C1=O [ACEQUINOCYL]
LC50 (Tetranychus urticae [1]): 29.6 µg/mL (≈ 77 µM)
LC90 (Tetranychus urticae [4]): 60 µg/mL (≈ 156 µM)
RatioLC50 (Tetranychus urticae [2]): 3.8
LC50 (Tetranychus urticae [3]): 7.7 µg/mL (≈ 20 µM)

COc1ccc(-c2ccccc2)cc1NNC(=O)OC(C)C [BIFENAZATE]
LC50 (Tetranychus urticae [1]): 2.4 µg/mL (≈ 7.99 µM)
RatioLC50 (Tetranychus urticae [2]): 2
LC50 (Tetranychus urticae [3]): 1.2 µg/mL (≈ 4 µM)

CCOC(=O)/C=C\C(=O)OCC [DIETHYL MALEATE]
RatioLC50 (Tetranychus urticae [5]): 189
RatioLC50 (Tetranychus urticae [6]): 1
LC50 (Tetranychus urticae [7]): 1310 µg/mL
RatioLC50 (Tetranychus urticae [8]): 0.7
LC50 (Tetranychus urticae [9]): 6.9 µg/mL

CCOc1cc(C(C)(C)C)ccc1C1COC(c2c(F)cccc2F)=N1 (stereo not drawn) [ETOXAZOLE]
LC50 (Tetranychus urticae [10]): 0.61 µg/mL (≈ 1.7 µM)
RatioLC50 (Tetranychus urticae [11]): 0.8
LC50 (Tetranychus urticae [12]): 0.76 µg/mL (≈ 2.11 µM)

CCCCOCCOCCOCc1cc2c(cc1CCC)OCO2 [PIPERONYL BUTOXIDE]
LC50 (Tetranychus urticae [13]): 3.9 µg/mL (≈ 11.5 µM)
LC50 (Tetranychus urticae [14]): 380 µg/mL (≈ 1120 µM)

CC(C)(C)c1ccc(CSc2cnn(C(C)(C)C)c(=O)c2Cl)cc1 [PYRIDABEN]
LC50 (Tetranychus urticae [1]): 135 µg/mL (≈ 370 µM)
RatioLC50 (Tetranychus urticae [2]): 0.9
LC50 (Tetranychus urticae [3]): 156 µg/mL (≈ 427 µM)

CCCCSP(=O)(SCCCC)SCCCC [S,S,S,-TRIBUTYLPHOSPHOROTRITHIOATE]
RatioLC50 (Tetranychus urticae [15]): 64
RatioLC50 (Tetranychus urticae [16]): 3.3
LC50 (Tetranychus urticae [17]): 6.3 µg/mL (≈ 20 µM)
LC50 (Tetranychus urticae [18]): 402 µg/mL (≈ 1280 µM)
RatioLC50 (Tetranychus urticae [19]): 0.8

CCC(C)(C)C(=O)OC1=C(c2ccc(Cl)cc2Cl)C(=O)OC12CCCCC2 [SPIRODICLOFEN]
LC50 (Tetranychus urticae [4]; Tetranychus urticae, SR-VP, foliar, 24 h): 17.9 µg/mL (≈ 43.5 µM)
RatioLC50 (Tetranychus urticae [20]): 277
LC50 (Tetranychus urticae [21]): 5930 µg/mL (≈ 14400 µM)
LC50 (Tetranychus urticae [22]): 10000 µg/mL (≈ 24300 µM)
LC50 (Tetranychus urticae [23]): 44 µg/mL (≈ 107 µM)
LC50 (Tetranychus urticae [24]): 56 µg/mL (≈ 136 µM)
LC90 (Tetranychus urticae [25]): 236 µg/mL (≈ 574 µM)
LC50 (Tetranychus urticae [25]; Tetranychus urticae, foliar): 85 µg/mL (≈ 207 µM)
LC90 (Tetranychus urticae [26]): 150 µg/mL (≈ 365 µM)
LC50 (Tetranychus urticae [26]; Tetranychus urticae, foliar): 68 µg/mL (≈ 165 µM)
RatioLC50 (Tetranychus urticae [27]): 2
LC50 (Tetranychus urticae [28]): 1340 µg/mL (≈ 3270 µM)
LC50 (Tetranychus urticae [29]): 8.7 µg/mL (≈ 21.2 µM)
LC50 (Tetranychus urticae [12]): 4.9 µg/mL (≈ 11.9 µM)

Cc1cc(C)c(C2=C(OC(=O)CC(C)(C)C)C3(CCCC3)OC2=O)c(C)c1 [SPIROMESIFEN]
LC50 (Tetranychus urticae [10]): 14.5 µg/mL (≈ 39.1 µM)
RatioLC50 (Tetranychus urticae [11]): 18
LC50 (Tetranychus urticae [12]): 0.79 µg/mL (≈ 2.13 µM)

CCc1nn(C)c(C(=O)NCc2ccc(C(C)(C)C)cc2)c1Cl [TEBUFENPYRAD]
LC50 (Tetranychus urticae [1]): 138 µg/mL (≈ 412 µM)
RatioLC50 (Tetranychus urticae [2]): 2.2
LC50 (Tetranychus urticae [3]): 63.5 µg/mL (≈ 190 µM)
